# According to patent US20060159829A1, “Consumer product for enhancing mental focus” (Conopco Inc, d/b/a UNILEVER, priority 2004, published 2006):
# Experiments:
# [1] = system: spoilage yeasts or moulds; assay: Antimicrobial effect of cinnamic acid at low and neutral pH; format: cell-based; details: 100 ppm
# [2] = cited from earlier work
Compound,effect on growth of spoilage yeasts or moulds ([1]; neutral pH),effect on growth of spoilage yeasts or moulds ([1]; pH 3.0),pKa [2]
O=C(O)C=Cc1ccccc1 [cinnamic acid],entirely without effect,completely extinguish growth,
O=S(O)O [sulphite],,,1.88
